Data on 28 compounds can be found in patent US20220356174A1, “PYRIDIN-2-ONE COMPOUNDS USEFUL AS SMARCA2 ANTAGONISTS” (Epizyme, Inc., priority 2018, published 2022).

pIC50: −log10 of the molar value.

Chain of FL-SMARCA4 (P51532 whole entry): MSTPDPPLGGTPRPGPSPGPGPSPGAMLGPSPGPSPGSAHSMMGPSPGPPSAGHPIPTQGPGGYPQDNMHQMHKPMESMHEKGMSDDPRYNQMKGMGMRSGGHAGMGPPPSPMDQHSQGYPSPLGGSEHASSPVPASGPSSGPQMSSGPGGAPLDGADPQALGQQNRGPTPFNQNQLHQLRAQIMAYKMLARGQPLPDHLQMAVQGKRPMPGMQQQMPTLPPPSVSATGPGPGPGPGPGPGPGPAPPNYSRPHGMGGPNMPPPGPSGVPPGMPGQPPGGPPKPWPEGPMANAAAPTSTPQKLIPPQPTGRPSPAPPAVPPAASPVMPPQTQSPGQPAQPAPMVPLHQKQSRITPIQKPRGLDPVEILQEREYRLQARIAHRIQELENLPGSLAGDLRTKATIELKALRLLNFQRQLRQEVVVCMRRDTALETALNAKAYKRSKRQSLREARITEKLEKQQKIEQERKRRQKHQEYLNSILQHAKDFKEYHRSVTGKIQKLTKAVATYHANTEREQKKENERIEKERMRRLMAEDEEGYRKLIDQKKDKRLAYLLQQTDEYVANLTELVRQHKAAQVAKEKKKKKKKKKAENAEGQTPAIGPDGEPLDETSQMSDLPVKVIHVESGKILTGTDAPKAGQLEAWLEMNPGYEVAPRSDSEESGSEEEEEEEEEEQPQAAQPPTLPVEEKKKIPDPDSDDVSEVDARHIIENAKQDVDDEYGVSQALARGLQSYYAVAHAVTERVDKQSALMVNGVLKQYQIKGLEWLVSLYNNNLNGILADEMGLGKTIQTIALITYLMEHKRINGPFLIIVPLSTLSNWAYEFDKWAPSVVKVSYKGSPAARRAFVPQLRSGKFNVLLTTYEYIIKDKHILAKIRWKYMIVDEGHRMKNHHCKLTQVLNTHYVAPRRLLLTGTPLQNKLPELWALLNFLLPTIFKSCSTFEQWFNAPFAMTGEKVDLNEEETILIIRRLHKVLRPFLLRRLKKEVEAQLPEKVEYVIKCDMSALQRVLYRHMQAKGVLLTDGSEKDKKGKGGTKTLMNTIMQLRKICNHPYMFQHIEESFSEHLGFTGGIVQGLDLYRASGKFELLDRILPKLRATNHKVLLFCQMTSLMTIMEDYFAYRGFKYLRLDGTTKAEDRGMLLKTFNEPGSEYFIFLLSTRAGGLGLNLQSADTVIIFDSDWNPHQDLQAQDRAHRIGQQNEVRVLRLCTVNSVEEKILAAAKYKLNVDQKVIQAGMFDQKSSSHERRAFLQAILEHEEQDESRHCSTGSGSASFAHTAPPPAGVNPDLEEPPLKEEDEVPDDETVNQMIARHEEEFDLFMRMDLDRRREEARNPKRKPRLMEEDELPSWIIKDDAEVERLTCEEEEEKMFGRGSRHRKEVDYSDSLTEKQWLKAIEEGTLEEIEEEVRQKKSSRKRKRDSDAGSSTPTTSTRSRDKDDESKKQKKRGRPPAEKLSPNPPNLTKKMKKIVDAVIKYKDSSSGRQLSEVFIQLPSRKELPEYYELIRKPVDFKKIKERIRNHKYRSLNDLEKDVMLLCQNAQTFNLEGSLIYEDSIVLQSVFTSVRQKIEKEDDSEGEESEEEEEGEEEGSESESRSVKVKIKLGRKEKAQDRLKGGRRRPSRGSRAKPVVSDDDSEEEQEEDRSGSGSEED

One assay addresses FL-SMARCA4 (Homo sapiens, UniProt P51532). Put plainly: SMARCA4 ATPase activity assay (ADP-Glo, chicken mononucleosome substrate). The note with it: FL-SMARCA4 IC50. On the technique in general: In ADP-Glo the light output rises with the ADP produced.
Description: Substrates. Chicken erythrocyte mononucleosomes were prepared from fresh chicken blood collected into anticoagulant and filtered through cheesecloth. The filtered chicken blood was diluted in buffer A (10 mM Tris-HCl, pH 7.4, 10 mM NaCl, 3 mM MgCl2) and centrifuged at 500 g for 15 minutes to collect the erythrocytes. Erythrocyte nuclei were harvested by resuspending the pellets in buffer A containing 0.3% NP-40 detergent. The mixture was stirred with a magnetic bar for 10 mins and centrifuged at 4000 g for 10 minutes. Resuspension, stirring and centrifugation was repeated twice more before the final nuclei pellet was resuspended in buffer A+0.3% NP-40 and stored at −80° C. until purification. For nucleosome purification, nuclei aliquots were rapidly thawed and washed five times with buffer B (10 mM Tris-HCl, pH 7.4, 1 mM CaCl2), 1 mM PMSF) and collected by centrifugation at 2800 g for 10 minutes. Pellets were resuspended in buffer B and treated with 100 U/mL micrococcal nuclease for 40 minutes at 37° C. The reaction was terminated by the addition of 2 mM EDTA and was centrifuged at 2800 g for 10 minutes. The nuclei were then lysed by resuspending the pellet in 1 mM EDTA and 1 mM PMSF and passing the mixture through a 22G needle 4 to 5 times. The solution was then centrifuged at 15,000 g for 20 minutes and the supernatant was collected. The remaining pellet was lysed through the syringe twice more and the supernatants were pooled after centrifugation. The pooled supernatants were further purified by size exclusion chromatography (GE Sephacryl S300 HR 50/100) in buffer C (10 mM HEPES, pH 7.5, 10 mM KCl, 1 mM EDTA, 1 mM PMSF, 10% glycerol). Fractions were analyzed by agarose gel electrophoresis and SDS-PAGE and fractions containing mononucleosomes were pooled and stored at −80° C.
The SMARCA2 or SMARCA4 ATPase assays were identical. The SMARCA2 or SMARCA4 ATPase assays were performed in a buffer consisting of 20 mM Bicine (pH 7.5), 10 mM KCl, 1 mM MgCl2, 1 mM TCEP, 0.005% BSG, and 0.002% Tween 20, prepared on the day of use. Compounds in 100% DMSO were 3-fold serially diluted to produce a 10 point curve for IC50 determination and 0.2 uL were transferred into polypropylene 384-well V-bottom plates (Greiner) using an Echo liquid handler (Labcyte). DMSO (0.2 uL) was added to Columns 11, 12, 23, 24, rows A-H for the maximum signal control and 0.2 uL doxorubicin, a known DNA intercalator, was added to columns 11, 12, 23, 24, rows I-P for the minimum signal control. The SMARCA2 or SMARCA4 enzyme (10 uL) was added to the compounds and allowed to incubate with the compounds for 30 min at room temperature. The SMARCA2 or SMARCA4 ATPase assay was initiated by the addition of 10 uL chicken mononucleosome and ATP mixture (final volume=20 uL). The final concentrations of the assay components were as follows: SMARCA2 or SMARCA4 was 5 nM, ATP was 250 uM, chicken mononucleosome was 10 nM, doxorubicin in the minimum signal control wells was 50 uM, and the DMSO concentration was 1%. 5 uL of the reaction mixture was transferred from the 384-well polypropylene plate to a white opaque polystyrene 384-well plate. At 60 minutes, the assays were terminated by the addition of 5 uL ADP-Glo™ Reagent (Promega). After 40 minutes, the luciferase reaction was initiated by the addition of 10 uL of Kinase Detection Reagent (Promega) and incubated for 1 hour. The ADP product generated from the SMARCA2 or SMARCA4 ATPase reaction was determined via luminescence intensity.
In the case of `Cc1cc(=O)[nH]cc1NC(=O)c1ccc(C(F)(F)F)nc1C` [Compound 32d], the pIC50 is under 4.30.

The compound `CN(C)C(=O)c1cc(C(=O)Nc2cc(F)c(=O)n(CC(F)F)c2)sc1C(F)(F)F` [Compound 36d] showed a pIC50 of under 4.30.

`CCn1cc(NC(=O)Nc2ccccn2)ccc1=O` [Compound 17d] showed a pIC50 of under 4.30.

In the case of `CCn1c(F)c(NC(=O)c2cc(Cl)c(Cl)s2)ccc1=O` [Compound 29d], the pIC50 is under 4.30.

The same assay, now with this note: FL-SMARCA4 IC50, Table 3a.2; SMARCA4 5 nM, ATP 250 uM, mononucleosome 10 nM.
As to `CO[C@H]1C[C@@H](C(=O)Nc2cc(Cl)c(=O)n(C)c2)N(C)C1` [Compound 11a], the pIC50 is under 4.30.

Consider `O=C(Nc1cc(F)c(=O)n(CCF)c1)c1ccc(Cl)cn1` [Compound 56a], for which the pIC50 was under 4.30.

In turn, `CCn1cc(NC(=O)C2CCOCC2)ccc1=O` [Compound 13a] had a pIC50 of under 4.30.

`CCn1cc(NC(=O)c2[nH]c3ccccc3c2C)ccc1=O` [Compound 18a] showed a pIC50 of under 4.30.

Regarding `COC1(C(=O)Nc2ccc(=O)n(Cc3ccccc3Cl)c2)CCNCC1` [Compound 4a], the pIC50 was under 4.30.

For the compound `COc1ccc2[nH]c(C(=O)Nc3c[nH]c(=O)c(C)c3)cc2c1` [Compound 8a], the pIC50 is under 4.30.

For `CN1CC(C(=O)Nc2cc(F)c(=O)n(CCF)c2)CCC1=O` (centres unmarked) [Compound 49a], the pIC50 was under 4.30.

Compound `CCn1cc(NC(=O)c2cnc3c(Cl)cccn23)ccc1=O` [Compound 29a] gave a pIC50 of under 4.30.

`CCn1cc(NC(=O)c2cccc(Cl)n2)ccc1=O` [Compound 25a] gave a pIC50 of under 4.30.

Compound `CCn1cc(NC(=O)c2ccc(Cl)c(Cl)n2)ccc1=O` [Compound 33a] showed a pIC50 of under 4.30.

As to `CCn1cc(NC(=O)c2ccc3c(c2)OCO3)ccc1=O` [Compound 15a], the pIC50 is under 4.30.

Still in this assay, the particulars now being: FL-SMARCA4 IC50, Table 3b.2; SMARCA4 5 nM, ATP 250 uM, mononucleosome 10 nM.
`N#Cc1ccc(C(=O)Nc2cc(F)c(=O)n(CCF)c2)cc1C#N` [Compound 20b] showed a pIC50 of 4.94.

As for `CCn1cc(NC(=O)[C@@H]2CCC[C@H](Cl)C2)ccc1=O` [Compound 13b], the pIC50 is under 4.30.

Still in this assay, the particulars now being: FL-SMARCA4 IC50, Table 3.2; ATPase assay, enzyme 5 nM, ATP 250 uM, chicken mononucleosome 10 nM, 30 min preincubation.
In the case of `Cn1cc(NC(=O)c2cc(Cl)cs2)cc(Br)c1=O` [Compound 8], the pIC50 is under 4.30.

For `Cn1cc(C(=O)Nc2cc(F)c(=O)n(CCF)c2)sc1=O` [Compound 227], the pIC50 is under 4.30.

Compound `CN(C)C(=O)c1cc(C(=O)Nc2cc(F)c(=O)n(CCF)c2)sc1Cl` [Compound 299] showed a pIC50 of under 4.30.

`CNCCn1cc(NC(=O)c2cc(Cl)c(Cl)n2C)ccc1=O` [Compound 71] showed a pIC50 of under 4.30.

`CCn1cc(NC(=O)c2cc(C(F)(F)F)nn2C)ccc1=O` [Compound 15] gave a pIC50 of under 4.30.

Compound `O=C(Nc1cc(Cl)c(=O)n(CCF)c1)c1cc(Cl)n[nH]1` [Compound 156] gave a pIC50 of 6.05.

In turn, `CCn1cc(NC(=O)c2cnc(NC(C)C)s2)ccc1=O` [Compound 217] showed a pIC50 of under 4.30.

As for `N#Cc1cc(C(=O)Nc2cc(F)c(=O)n(CCF)c2)oc1Cl` [Compound 245], the pIC50 was 4.92.

Compound `Cn1nc(Cl)cc1C(=O)Nc1cc(F)c(=O)n(CCF)c1` [Compound 233] showed a pIC50 of 4.44.

`CCn1cc(NC(=O)c2cc(Cl)c(Cl)s2)cc(C#N)c1=O` [Compound 123]: the pIC50 was 4.94.

Turning to `CCn1cc(NC(=O)c2cc(Cl)c(Cl)n2C(C)C)ccc1=O` [Compound 61], the pIC50 was under 4.30.

For a further assay, the target named is T1, FL-SMARCA2 (full-length human SMARCA2 isoform 1) (Homo sapiens, UniProt P51531).
T1 construct: FLAG tag (YKDDDDK) (C); made in house; host or cells: Sf21 insect cells (baculovirus, pFastBacI)
T1 sequence (P51531 with tags, fused parts or gaps): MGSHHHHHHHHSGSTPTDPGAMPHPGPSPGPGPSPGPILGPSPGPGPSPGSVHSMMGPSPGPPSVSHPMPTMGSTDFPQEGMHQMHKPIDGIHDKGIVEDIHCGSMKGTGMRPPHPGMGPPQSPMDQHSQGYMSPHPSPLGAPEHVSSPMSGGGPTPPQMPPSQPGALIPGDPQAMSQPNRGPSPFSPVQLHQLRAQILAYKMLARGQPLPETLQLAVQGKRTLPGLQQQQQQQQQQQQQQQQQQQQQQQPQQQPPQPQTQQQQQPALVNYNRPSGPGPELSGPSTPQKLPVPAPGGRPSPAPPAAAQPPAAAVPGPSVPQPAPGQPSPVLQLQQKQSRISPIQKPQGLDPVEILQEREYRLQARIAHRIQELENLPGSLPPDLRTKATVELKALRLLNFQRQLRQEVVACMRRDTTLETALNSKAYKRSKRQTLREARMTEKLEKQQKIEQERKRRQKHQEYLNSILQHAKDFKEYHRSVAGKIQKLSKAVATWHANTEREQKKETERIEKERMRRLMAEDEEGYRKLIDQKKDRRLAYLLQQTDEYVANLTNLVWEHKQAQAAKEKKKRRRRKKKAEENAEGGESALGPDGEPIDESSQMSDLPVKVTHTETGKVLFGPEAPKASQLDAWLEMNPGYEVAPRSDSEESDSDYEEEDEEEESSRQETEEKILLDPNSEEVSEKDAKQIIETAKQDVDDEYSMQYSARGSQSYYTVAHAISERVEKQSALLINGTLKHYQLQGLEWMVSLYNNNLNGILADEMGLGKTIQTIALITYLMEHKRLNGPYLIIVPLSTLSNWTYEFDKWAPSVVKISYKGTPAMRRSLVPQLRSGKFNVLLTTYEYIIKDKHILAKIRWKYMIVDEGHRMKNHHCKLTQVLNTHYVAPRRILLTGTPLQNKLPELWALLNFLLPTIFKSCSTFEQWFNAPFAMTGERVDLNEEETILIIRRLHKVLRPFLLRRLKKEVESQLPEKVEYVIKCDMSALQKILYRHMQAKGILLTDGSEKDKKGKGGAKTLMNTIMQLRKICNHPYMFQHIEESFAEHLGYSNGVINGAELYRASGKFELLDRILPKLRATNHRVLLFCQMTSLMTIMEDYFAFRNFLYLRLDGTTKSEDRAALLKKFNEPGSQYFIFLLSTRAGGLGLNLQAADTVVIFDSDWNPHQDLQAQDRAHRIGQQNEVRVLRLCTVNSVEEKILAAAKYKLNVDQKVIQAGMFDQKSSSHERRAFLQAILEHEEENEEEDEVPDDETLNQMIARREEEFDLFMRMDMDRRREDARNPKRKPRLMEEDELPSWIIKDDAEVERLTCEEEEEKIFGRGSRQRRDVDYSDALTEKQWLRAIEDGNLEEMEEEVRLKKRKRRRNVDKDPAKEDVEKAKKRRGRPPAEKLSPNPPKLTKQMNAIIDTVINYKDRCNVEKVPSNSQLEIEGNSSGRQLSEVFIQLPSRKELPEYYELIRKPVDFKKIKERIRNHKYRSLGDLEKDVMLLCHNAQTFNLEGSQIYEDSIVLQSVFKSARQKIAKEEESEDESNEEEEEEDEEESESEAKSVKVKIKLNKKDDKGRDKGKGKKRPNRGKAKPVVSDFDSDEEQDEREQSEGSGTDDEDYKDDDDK
Description: SMARCA2 ATPase activity assay (ADP-Glo, chicken mononucleosome substrate). The class given is biochemical. The conditions noted are these: Table 3a.1; SMARCA2 5 nM, ATP 250 uM, mononucleosome 10 nM.
The compound `CO[C@H]1C[C@@H](C(=O)Nc2cc(Cl)c(=O)n(C)c2)N(C)C1` [Compound 11a] gave a pIC50 of under 4.30.

In turn, `O=C(Nc1cc(F)c(=O)n(CCF)c1)c1ccc(Cl)cn1` [Compound 56a] gave a pIC50 of under 4.30.

Consider `CCn1cc(NC(=O)C2CCOCC2)ccc1=O` [Compound 13a], for which the pIC50 is under 4.30.

For `CCn1cc(NC(=O)c2[nH]c3ccccc3c2C)ccc1=O` [Compound 18a], the pIC50 is under 4.30.

`COC1(C(=O)Nc2ccc(=O)n(Cc3ccccc3Cl)c2)CCNCC1` [Compound 4a]: the pIC50 was under 4.30.

`COc1ccc2[nH]c(C(=O)Nc3c[nH]c(=O)c(C)c3)cc2c1` [Compound 8a] showed a pIC50 of under 4.30.

`CN1CC(C(=O)Nc2cc(F)c(=O)n(CCF)c2)CCC1=O` (centres unmarked) [Compound 49a] had a pIC50 of under 4.30.

Compound `CCn1cc(NC(=O)c2cnc3c(Cl)cccn23)ccc1=O` [Compound 29a] had a pIC50 of under 4.30.

Consider `CCn1cc(NC(=O)c2cccc(Cl)n2)ccc1=O` [Compound 25a], for which the pIC50 is under 4.30.

`CCn1cc(NC(=O)c2ccc(Cl)c(Cl)n2)ccc1=O` [Compound 33a] showed a pIC50 of under 4.30.

`CCn1cc(NC(=O)c2ccc3c(c2)OCO3)ccc1=O` [Compound 15a]: the pIC50 is under 4.30.

The assay is the same for the next values; noted with them: Table 3b.1; SMARCA2 5 nM, ATP 250 uM, mononucleosome 10 nM.
The compound `N#Cc1ccc(C(=O)Nc2cc(F)c(=O)n(CCF)c2)cc1C#N` [Compound 20b] had a pIC50 of 5.61.

Regarding `CCn1cc(NC(=O)[C@@H]2CCC[C@H](Cl)C2)ccc1=O` [Compound 13b], the pIC50 was under 4.30.

Still in this assay, the particulars now being: Table 3.1; ATPase assay, enzyme 5 nM, ATP 250 uM, chicken mononucleosome 10 nM, 30 min preincubation.
Turning to `Cn1cc(NC(=O)c2cc(Cl)cs2)cc(Br)c1=O` [Compound 8], the pIC50 was under 4.30.

`Cn1cc(C(=O)Nc2cc(F)c(=O)n(CCF)c2)sc1=O` [Compound 227] gave a pIC50 of under 4.30.

With `CN(C)C(=O)c1cc(C(=O)Nc2cc(F)c(=O)n(CCF)c2)sc1Cl` [Compound 299], the pIC50 was under 4.30.

Compound `CNCCn1cc(NC(=O)c2cc(Cl)c(Cl)n2C)ccc1=O` [Compound 71] showed a pIC50 of under 4.30.

The compound `CCn1cc(NC(=O)c2cc(C(F)(F)F)nn2C)ccc1=O` [Compound 15] showed a pIC50 of under 4.30.

With `O=C(Nc1cc(Cl)c(=O)n(CCF)c1)c1cc(Cl)n[nH]1` [Compound 156], the pIC50 is 6.63.

Compound `CCn1cc(NC(=O)c2cnc(NC(C)C)s2)ccc1=O` [Compound 217] had a pIC50 of under 4.30.

The compound `N#Cc1cc(C(=O)Nc2cc(F)c(=O)n(CCF)c2)oc1Cl` [Compound 245] gave a pIC50 of 5.70.

As for `Cn1nc(Cl)cc1C(=O)Nc1cc(F)c(=O)n(CCF)c1` [Compound 233], the pIC50 is 5.12.

On to `CCn1cc(NC(=O)c2cc(Cl)c(Cl)s2)cc(C#N)c1=O` [Compound 123], for which the pIC50 is 5.92.

As for `CCn1cc(NC(=O)c2cc(Cl)c(Cl)n2C(C)C)ccc1=O` [Compound 61], the pIC50 is under 4.30.

Still in this assay, the particulars now being: Table 3d.1; ATPase assay, enzyme 5 nM, ATP 250 uM, chicken mononucleosome 10 nM, 30 min preincubation; read-out: FL-SMARCA2 IC>50.
For `Cc1cc(=O)[nH]cc1NC(=O)c1ccc(C(F)(F)F)nc1C` [Compound 32d], the pIC50 is under 4.30.

For `CN(C)C(=O)c1cc(C(=O)Nc2cc(F)c(=O)n(CC(F)F)c2)sc1C(F)(F)F` [Compound 36d], the pIC50 was 4.44.

With `CCn1cc(NC(=O)Nc2ccccn2)ccc1=O` [Compound 17d], the pIC50 is under 4.30.

Take `CCn1c(F)c(NC(=O)c2cc(Cl)c(Cl)s2)ccc1=O` [Compound 29d]: the pIC50 was under 4.30.
